Here are results for ten compounds from patent publication US6825170B2, “6-O-acyl ketolide antibacterials” (Ortho-McNeil Pharmaceutical, Inc., priority 2001, dated 2004).

Assay in all cases: MIC, microdilution broth method (NCCLS)
What all share (type): cell-based
What all share (settings): 35° C., 16-20 hours

The test system of test [1] is E. faecalis ATCC29212. How it is done:
(§1) Minimal inhibitory concentration (MIC) has been an indicator of in vitro antibacterial activity widely used in the art. The in vitro antimicrobial activity of the compounds was determined by the microdilution broth method following the test method from the National Committee for Clinical Laboratory Standards (NCCLS). This method is described in the NCCLS Document M7-A4, Vol.17, No.2, “Methods for Dilution Antimicrobial Susceptibility Test for Bacteria that Grow Aerobically—Fourth Edition”, which is incorporated herein by reference.
(§2) In this method two-fold serial dilutions of drug in cation adjusted Mueller-Hinton broth are added to wells in microdilution trays. The test organisms are prepared by adjusting the turbidity of actively growing broth cultures so that the final concentration of test organism after it is added to the wells is approximately 5×10^4 CFU/well.
(§3) Following inoculation of the microdilution trays, the trays are incubated at 35° C. for 16-20 hours and then read. […] The amount of growth in the wells containing the test compound is compared with the amount of growth in the growth-control wells (no test compound) used in each tray. As set forth in Table 1, compounds of the present invention were tested against a variety of Gram positive and Gram negative pathogenic bacteria resulting in a range of activities depending on the organism tested.

Test [2] relates to H. influenzae ATCC49247. How it is done: as §1, §2, §3
Test [3] has as its system S. aureus ATCC29213. How it is done: as §1, §2, §3
In test [4] the test system is S. pneumoniae ATCC49619. The procedure:
as §1, §2, §3

≈ marks a conversion by molar mass, not a printed value.

Turning to `CCc1cnc(-c2ccc(C=CCOC(=O)OC3(C)CC(C)C(=O)C(C)C4NC(=O)OC4(C)C(CC)OC(=O)C(C)C(=O)C(C)C3OC3OC(C)CC(N(C)C)C3O)cc2)nc1` (stereo not shown) [Compound 58], the “MIC (C: E. faecalis ATCC29212)” value in test [1] came out at 0.5 µg/mL (≈ 0.578 µM). The “MIC (E: H. influenzae ATCC49247)” value in test [2] is 4 µg/mL (≈ 4.62 µM). For the same compound, the “MIC (B: S. aureus ATCC29213)” value in test [3] came to 0.5 µg/mL (≈ 0.578 µM). For the same compound, the “MIC (D: S. pneumoniae ATCC49619)” value in test [4] is 0.06 µg/mL (≈ 0.0694 µM).
In the case of `CCC1OC(=O)C(C)C(=O)C(C)C(OC2OC(C)CC(N(C)C)C2O)C(C)(OC(=O)OCC=Cc2ccc(-c3ccc(C)nn3)cc2)CC(C)C(=O)C(C)C2NC(=O)OC12C` (stereo not shown) [Compound 61], in test [1], the “MIC (C: E. faecalis ATCC29212)” value was determined as 0.12 µg/mL (≈ 0.141 µM). For the same compound, the “MIC (E: H. influenzae ATCC49247)” value in test [2] was 1 µg/mL (≈ 1.18 µM). Also, the “MIC (B: S. aureus ATCC29213)” value in test [3] turned out to be 0.12 µg/mL (≈ 0.141 µM). Further, the “MIC (D: S. pneumoniae ATCC49619)” value in test [4] came out at 0.03 µg/mL (≈ 0.0353 µM).
Turning to `CCC1OC(=O)C(C)C(=O)C(C)C(OC2OC(C)CC(N(C)C)C2O)C(C)(OC(=O)OCC=Cc2ccc(-c3ccccn3)s2)CC(C)C(=O)C(C)C2NC(=O)OC12C` (stereo not shown) [Compound 63], the “MIC (C: E. faecalis ATCC29212)” value in test [1] came to 0.12 µg/mL (≈ 0.143 µM). Also, the “MIC (E: H. influenzae ATCC49247)” value in test [2] was determined as 1 µg/mL (≈ 1.19 µM). Further, the “MIC (B: S. aureus ATCC29213)” value in test [3] turned out to be 0.25 µg/mL (≈ 0.297 µM). Moreover, in test [4], the “MIC (D: S. pneumoniae ATCC49619)” value was found to be 0.06 µg/mL (≈ 0.0713 µM).
For the compound `CCC1OC(=O)C(C)C(=O)C(C)C(OC2OC(C)CC(N(C)C)C2O)C(C)(OC(=O)OCC=Cc2ccc(-c3ncccn3)s2)CC(C)C(=O)C(C)C2NC(=O)OC12C` (stereo not shown) [Compound 64], the “MIC (C: E. faecalis ATCC29212)” value in test [1] stood at 0.06 µg/mL (≈ 0.0712 µM). The “MIC (E: H. influenzae ATCC49247)” value in test [2] worked out at 1 µg/mL (≈ 1.19 µM). Moreover, the “MIC (B: S. aureus ATCC29213)” value in test [3] is 0.12 µg/mL (≈ 0.142 µM). The “MIC (D: S. pneumoniae ATCC49619)” value in test [4] was 0.03 µg/mL (≈ 0.0356 µM).
Taken in the same sequence, the figures for `CCC1OC(=O)C(C)C(=O)C(C)C(OC2OC(C)CC(N(C)C)C2O)C(C)(OC(=O)OCC=Cc2ccc(-c3cnccn3)s2)CC(C)C(=O)C(C)C2NC(=O)OC12C` (stereo not shown) [Compound 65] were 0.12 µg/mL (≈ 0.142 µM), 1 µg/mL (≈ 1.19 µM), 0.25 µg/mL (≈ 0.297 µM) and 0.03 µg/mL (≈ 0.0356 µM).
The matching figures for `CCC1OC(=O)C(C)C(=O)C(C)C(OC2OC(C)CC(N(C)C)C2O)C(C)(OC(=O)OCC=Cc2cnc(-c3ccccc3)nc2)CC(C)C(=O)C(C)C2NC(=O)OC12C` (stereo not shown) [Compound 72]: 0.06 µg/mL (≈ 0.0717 µM), 2 µg/mL (≈ 2.39 µM), 0.25 µg/mL (≈ 0.299 µM) and 0.03 µg/mL (≈ 0.0358 µM).
The matching figures for `CCC1OC(=O)C(C)C(=O)C(C)C(OC2OC(C)CC(N(C)C)C2O)C(C)(OC(=O)OCC=Cc2ccc(-c3cccs3)s2)CC(C)C(=O)C(C)C2NC(=O)OC12C` (stereo not shown) [Compound 73]: 1 µg/mL (≈ 1.18 µM), 16 µg/mL (≈ 18.9 µM), 2 µg/mL (≈ 2.36 µM) and 0.25 µg/mL (≈ 0.295 µM).
As for `CCC1OC(=O)C(C)C(=O)C(C)C(OC2OC(C)CC(N(C)C)C2O)C(C)(OC(=O)OCC=C(C)c2ccc(-c3ncccn3)cc2)CC(C)C(=O)C(C)C2NC(=O)OC12C` (stereo not shown) [Compound 76], in test [1], the “MIC (C: E. faecalis ATCC29212)” value is 0.12 µg/mL (≈ 0.141 µM). Further, the “MIC (E: H. influenzae ATCC49247)” value in test [2] worked out at 1 µg/mL (≈ 1.18 µM). Also, in test [3], the “MIC (B: S. aureus ATCC29213)” value turned out to be 0.25 µg/mL (≈ 0.294 µM). The “MIC (D: S. pneumoniae ATCC49619)” value in test [4] was 0.03 µg/mL (≈ 0.0353 µM).
As for `CCC1OC(=O)C(C)C(=O)C(C)C(OC2OC(C)CC(N(C)C)C2O)C(C)(OC(=O)OCC#Cc2cc(-c3ccccn3)no2)CC(C)C(=O)C(C)C2NC(=O)OC12C` (stereo not shown) [Compound 122], the “MIC (C: E. faecalis ATCC29212)” value in test [1] was found to be 0.06 µg/mL (≈ 0.0727 µM). In test [2], the “MIC (E: H. influenzae ATCC49247)” value is 1 µg/mL (≈ 1.21 µM). Besides, the “MIC (B: S. aureus ATCC29213)” value in test [3] amounted to 0.12 µg/mL (≈ 0.145 µM). The “MIC (D: S. pneumoniae ATCC49619)” value in test [4] was “≦0.015 μg/mL”.
Turning to `CCC1OC(=O)C(C)C(=O)C(C)C(OC2OC(C)CC(N(C)C)C2O)C(C)(OC(=O)OCCC#Cc2ccc(-c3ncccn3)cc2)CC(C)C(=O)C(C)C2NC(=O)OC12C` (stereo not shown) [Compound 137], the “MIC (C: E. faecalis ATCC29212)” value in test [1] was 0.12 µg/mL (≈ 0.141 µM). For the same compound, the “MIC (E: H. influenzae ATCC49247)” value in test [2] was determined as 4 µg/mL (≈ 4.71 µM). Moreover, in test [3], the “MIC (B: S. aureus ATCC29213)” value worked out at 0.25 µg/mL (≈ 0.294 µM). For the same compound, in test [4], the “MIC (D: S. pneumoniae ATCC49619)” value came out at 0.03 µg/mL (≈ 0.0353 µM).
